Results taken from ChEMBL document CHEMBL1133809, “Synthesis of N-propargylphenelzine and analogues as neuroprotective agents” (Bioorg Med Chem Lett, 2001).
pIC50: −log10 of the molar value.

Legend:
[1] = molecular target: T1, Amine oxidase [flavin-containing] A (Rattus norvegicus, UniProt P21396); assay: In vitro ability to inhibit Monoamine oxidase A activity in rat whole brain in vitro
T1 sequence (P21396 whole entry): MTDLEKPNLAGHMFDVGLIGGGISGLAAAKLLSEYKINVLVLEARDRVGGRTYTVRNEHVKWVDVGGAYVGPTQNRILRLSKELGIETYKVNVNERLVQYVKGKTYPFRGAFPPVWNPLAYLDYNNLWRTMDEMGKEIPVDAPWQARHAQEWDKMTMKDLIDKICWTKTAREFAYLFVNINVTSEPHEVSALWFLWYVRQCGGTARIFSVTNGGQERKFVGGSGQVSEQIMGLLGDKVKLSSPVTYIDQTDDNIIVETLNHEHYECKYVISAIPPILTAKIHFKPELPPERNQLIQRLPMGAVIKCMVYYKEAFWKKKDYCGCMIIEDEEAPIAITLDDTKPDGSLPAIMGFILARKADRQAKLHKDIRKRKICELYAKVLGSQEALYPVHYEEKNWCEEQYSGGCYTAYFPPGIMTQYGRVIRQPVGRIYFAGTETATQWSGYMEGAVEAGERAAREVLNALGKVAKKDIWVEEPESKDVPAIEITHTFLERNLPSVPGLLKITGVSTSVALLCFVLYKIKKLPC

[2] = molecular target: T2, Amine oxidase [flavin-containing] B (Rattus norvegicus, UniProt P19643); assay: In vitro ability to inhibit Monoamine oxidase B activity in rat whole brain in vitro
T2 sequence (P19643 whole entry): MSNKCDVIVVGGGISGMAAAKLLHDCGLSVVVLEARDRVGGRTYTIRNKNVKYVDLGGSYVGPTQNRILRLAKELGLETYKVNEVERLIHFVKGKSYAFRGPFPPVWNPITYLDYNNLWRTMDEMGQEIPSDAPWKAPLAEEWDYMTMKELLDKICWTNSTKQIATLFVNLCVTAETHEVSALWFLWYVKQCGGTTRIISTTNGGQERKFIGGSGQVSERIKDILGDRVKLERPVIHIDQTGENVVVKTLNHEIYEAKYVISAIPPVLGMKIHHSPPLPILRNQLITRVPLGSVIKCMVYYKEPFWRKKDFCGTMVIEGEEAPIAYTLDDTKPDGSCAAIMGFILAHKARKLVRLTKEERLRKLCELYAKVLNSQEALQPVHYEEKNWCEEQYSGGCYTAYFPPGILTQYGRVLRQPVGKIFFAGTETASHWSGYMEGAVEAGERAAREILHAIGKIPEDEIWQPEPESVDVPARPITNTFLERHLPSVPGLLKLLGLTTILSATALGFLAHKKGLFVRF

[3] = species on record: Mus musculus; assay: Compound tested for the prevention of DSP- 4- induced depletion of noradrenaline (NA) in mouse hippocampus ex vivo; format: functional

SMILES | pIC50 [1] | pIC50 [2] | NA restoration [3] [%]
C#CCNNC/C=C/c1ccccc1 | 5.10 | 4.99 | -7.21
C#CCN(N)c1ccccc1 | 4.95 | 6.00 | -49.82
C#CCN(N)C/C=C/c1ccccc1 | 5.93 | 5.45 | -39.2
C#CCNNCc1ccccc1 | 6.44 | 5.55 | 31.74
C#CCN(N)CCc1ccccc1 | 5.69 | 7.12 | 56.38
C#CCNNCCc1ccccc1 | 5.73 | 5.50 | 76.83
C#CCN(N)Cc1ccccc1 | 5.81 | 6.92 | 33.58
NNCCc1ccccc1 [PHENELZINE] | 7.52 | 7.12 | 43.48
C#CCN(C)[C@H](C)Cc1ccccc1 [SELEGILINE] | – | – | 79.71
